Measured values: patent US7101988B2, “Polyvalent cation-sensing receptor in Atlantic salmon” (MariCal, Inc., priority 2000, dated 2006)
Residue numbers refer to the chain shown, from its start. Where two headings read alike, the source gives them in different places.

Assays:
[1] = molecular target: T1, HuPCaR (Homo sapiens, UniProt P41180); conditions: HuPCaR with Arg at AA #227; read-out: EC50 Ca2+; cited from earlier work
T1 sequence (P41180 20-1078): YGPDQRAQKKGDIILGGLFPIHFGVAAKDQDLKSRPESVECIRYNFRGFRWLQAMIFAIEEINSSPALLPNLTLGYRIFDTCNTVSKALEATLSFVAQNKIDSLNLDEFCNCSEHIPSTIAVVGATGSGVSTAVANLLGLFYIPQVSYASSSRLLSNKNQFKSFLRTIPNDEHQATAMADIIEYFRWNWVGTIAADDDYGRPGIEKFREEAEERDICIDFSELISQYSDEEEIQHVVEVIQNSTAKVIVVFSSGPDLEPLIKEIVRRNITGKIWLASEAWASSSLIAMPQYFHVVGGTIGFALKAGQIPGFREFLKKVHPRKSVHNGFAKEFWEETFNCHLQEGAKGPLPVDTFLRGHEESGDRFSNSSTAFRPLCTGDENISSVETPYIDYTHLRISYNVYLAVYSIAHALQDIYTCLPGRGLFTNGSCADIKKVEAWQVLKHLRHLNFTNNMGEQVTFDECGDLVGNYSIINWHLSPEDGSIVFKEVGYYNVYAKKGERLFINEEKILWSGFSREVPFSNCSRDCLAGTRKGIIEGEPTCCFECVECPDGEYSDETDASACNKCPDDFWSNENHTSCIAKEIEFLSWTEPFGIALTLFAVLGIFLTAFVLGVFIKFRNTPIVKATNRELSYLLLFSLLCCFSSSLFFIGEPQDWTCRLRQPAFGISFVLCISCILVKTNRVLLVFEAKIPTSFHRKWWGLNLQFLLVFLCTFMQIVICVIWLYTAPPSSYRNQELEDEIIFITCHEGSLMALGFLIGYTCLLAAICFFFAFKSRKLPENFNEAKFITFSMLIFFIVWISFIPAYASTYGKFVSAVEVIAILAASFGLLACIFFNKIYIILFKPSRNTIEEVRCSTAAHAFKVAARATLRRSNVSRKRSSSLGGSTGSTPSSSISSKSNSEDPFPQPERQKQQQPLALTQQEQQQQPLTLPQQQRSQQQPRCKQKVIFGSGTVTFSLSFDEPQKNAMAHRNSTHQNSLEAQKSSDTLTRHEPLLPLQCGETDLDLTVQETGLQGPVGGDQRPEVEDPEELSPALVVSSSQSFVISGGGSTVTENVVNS

[2] = molecular target: T2, HuPCaR (Homo sapiens, UniProt P41180, R227L); conditions: HuPCaR AA #227 altered to Leu; read-out: EC50 Ca2+; cited from earlier work
T2 sequence (P41180 20-1078 R227L): T1 sequence (P41180 20-1078) with R208L

[3] = system: SKCaR; experiment: FURA 2 based assay of SKCaR activation in transfected HEK cells; type: cell-based, dogfish shark (Squalus acanthias); conditions: for effect of amino acids on SKCaR's response to Ca2+: 10 mM Phe, 10 mM Ile or AA Mixture, FURA-2; for alteration in SKCaR sensitivity to Ca2+: increasing extracellular NaCl, sucrose as osmolality control
Text: SKCaR cDNA was ligated into the mammalian expression vector PCDNA II and transfected into HEK cells using standard techniques. The presence of SKCaR protein in transfected cells was verified by western blotting. Activation of SKCaR by extracellular Ca2+, Mg2+ or NaCl was quantified using a well characterized FURA 2 based assay where increases in intracellular Ca2+ produced by SKCaR activation are detected using methodology published previously by Bai, M., S. Quinn, S. Trvedi, O. Kifor, S. H. S. Pearce, M. R. Pollack, K. Krapcho, S. C. Hebert and E. M. Brown. Expression and characterization of inactivating and activating mutations in the human Ca2+-sensing receptor. J. Biol. Chem., 32:19537–19545 (1996); and expressed as % normalized intracellular calcium response to receptor activation.
Full length recombinant dogfish (Squalas acanthias) shark kidney calcium receptor (SKCaR) was expressed in human embryonic kidney cells using methods described herein. The ability of SKCaR to respond to individual amino acids as well as various mixtures was quantified using FURA-2 ratio imaging fluorescence.
Baseline extracellular Ca^2+ concentration was 0.5 mM. Aliquots of Ca^2+ were added to produce final extracellular concentrations of 2.5 mM, 5 mM, 7.5 mM, 10 mM and 20 mM Ca^2+ with changes in the fluorescence recorded. Note that increases in cell fluorescence were greater in the presence of 10 mM Phe for extracellular Ca^2+ concentrations less than 10 mM.

[4] = system: olfactory epithelium of freshwater adapted juvenile Atlantic salmon; experiment: Extracellular electrical potentials (EEG) from olfactory nerve; type: in vivo; conditions: for effect on olfactory epithelium response to mammalian finger rinse: 5 mM Ca2+ or 50 micromolar Gd3+; for effect on olfactory nerve response to 500 micromolar L-alanine: 5 mM Ca2+, 50 micromolar Gd3+ or 250 mM NaCl; for olfactory nerve response to stimulus: 500 micromolar L-alanine, 1 mM Ca2+, 250 mM NaCl, 50 micromolar Gd3+
Text: Physiol. A 127:157–166 (1975), and Hubbard, P C, et al., Olfactory sensitivity to changes in environmental Ca2+ in the marine teleost Sparus Aurata, J. Exp. Biol. 203:3821–3829 (2000). After anaesthetizing the fish, it was placed in V-clamp apparatus where its gills were irrigated continuously with aerated seawater and its nasal lamellae bathed continuously by a stream of distilled water via a tube held in position in the inhalant olfactory opening. The olfactory nerves of the fish were exposed by removal of overlying bony structures. Stimuli were delivered as boluses to the olfactory epithelium via a 3 way valve where 1 cc of water containing the stimulus was rapidly injected into the tube containing a continuously stream of distilled water. […] Using this experimental approach, stable and reproducible recordings could be obtained for up to 6 hr after the initial surgery on the fish.

[5] = normalized to response to 10 mM Ca2+

## [Ca+2] [Ca2+, calcium]
[1]
  EC50: 4 mM
[2]
  EC50: 9.3 mM
[3]; 3 mM Ca2+ added, as a function of extracellular NaCl
  effect of added Ca2+ on sensitivity of SKCaR to Mg2+: increases the sensitivity of SKCaR to Mg2+
[3]; depending on the extracellular concentration of NaCl, read-out: half maximal activation of SKCaR by extracellular Ca2+
  EC50: 1 to 15 mM
[3]; extracellular NaCl 50 mM, read-out: EC50 for Ca2+
  EC50: < 5 mM
[3]; extracellular NaCl 550 mM, read-out: EC50 for Ca2+
  EC50: ~18 mM
[4]
  effect on olfactory epithelium response to mammalian finger rinse: reversibly ablated the response
  effect on olfactory nerve response to 500 micromolar L-alanine: complete loss of the corresponding response
  olfactory nerve response to stimulus: produce responses in EEG activity
[4]; normalized to response to 10 mM Ca2+, read-out: half maximal excitatory response (EC50)
  EC50: 0.001 to 0.01 mM

## [Gd+3] [Gd^3+, gadolinium]
[4]
  effect on olfactory epithelium response to mammalian finger rinse: reversibly ablated the response
  effect on olfactory nerve response to 500 micromolar L-alanine: complete loss of the corresponding response
  olfactory nerve response to stimulus: obtained a response
[4]; [5]
  concentration at which olfactory epithelium responses occur: 1 to 10 µM

## CC[C@H](C)[C@H](N)C(=O)O [Ile, L-Isoleucine]
[3]
  effect of amino acids on SKCaR's response to Ca2+: increase SKCaR's response to a given Ca^2+ concentration

## C[C@H](N)C(=O)O [L-alanine]
[4]; 500 micromolar
  duration of olfactory nerve response: approximately 2 seconds
[4]
  olfactory nerve response to stimulus: large increases in both the firing frequency and amplitude in the olfactory nerve

## [Mg+2] [Mg2+, magnesium]
[3]
  range of extracellular Mg2+ in which SKCaR is activated: 5 to 40 mM
[3]; extracellular NaCl 50 mM, read-out: EC50 for Mg2+
  EC50: < 20 mM
[3]; extracellular NaCl 550 mM, read-out: EC50 for Mg2+
  EC50: ~80 mM
[4]; [5]
  concentration at which olfactory epithelium responses occur: 10 to 100 µM

## [Cl-].[Na+] [NaCl, sodium chloride]
[3]
  alteration in SKCaR sensitivity to Ca2+: reduce the sensitivity of SKCaR to Ca2+
[4]
  effect on olfactory nerve response to 500 micromolar L-alanine: resulted initially in a similar response
  olfactory nerve response to stimulus: produce responses in EEG activity
[4]; in vivo
  concentration until which olfactory epithelium is unresponsive: 250 millimolar

## N[C@@H](Cc1ccccc1)C(=O)O [Phe, L-Phenylalanine]
[3]
  effect of amino acids on SKCaR's response to Ca2+: increase SKCaR's response to a given Ca^2+ concentration
[3]; 10 mM, extracellular Ca2+ less than 10 mM
  increases in cell fluorescence: greater

## OC[C@H]1O[C@@](CO)(O[C@H]2O[C@H](CO)[C@@H](O)[C@H](O)[C@H]2O)[C@@H](O)[C@@H]1O [sucrose]
[3]
  alteration in SKCaR sensitivity to Ca2+: not observed
